The source of these data is patent publication US4374149A, “α-{[(Arylalkyl)amino]alkyl}-4-hydroxy-3-(lower-alkylsul finyl)benzenemethanols” (Sterling Drug Inc., priority 1978, dated 1983).

Structures can show the parent of a compound that is named as a salt.

Holding throughout (assay type): in vivo
The subject of assay [1] is systolic blood pressure. The experiment in a line: Antihypertensive activity, reduction in systolic blood pressure, single oral medication, unanesthetized spontaneous hypertensive rat. The note with it: P.O.; for Antihypertensive activity SH Rat AHD40 (single oral dose required to induce a 40 mm. average reduction in systolic blood pressure): unanesthetized SH rat.
Protocol: Antihypertensive activity was determined on the basis of the observed reduction in systolic blood pressure measured according to the method of H. Kersten et al., J. Lab. and Clin. Med. 32, 1090 (1947) following a single oral medication in the unanesthetized spontaneous hypertensive rat described by Okamato et al., Japan Circulation J. 27, 282 (1963).
^a AHD40 = single oral dose required to induce a 40 mm. average
Assay [2] has as its system β-adrenergic. The experiment in a line: β-adrenergic blocking activity, inhibition of isoproterenol-elicited heart rate increase in pentobarbitalized dog. The conditions noted are these: i.v.; for Dog β-blockade AED50 (approximate intravenous dose for 50% inhibition of isoproterenol-elicited heart rate increase): pentobarbitalized dog.
Protocol: The β-adrenergic blocking activity was determined in the pentobarbitalized dog as judged by the ability of the test compound to inhibit the elevation in heart rate elicited by a 0.5 mcg./kg. i.v. injection of isoproterenol.
^e AED50 = approximate intravenous dose required to cause 50%
Assay [3] deals with blood pressure. The experiment in a line: Antihypertensive activity, sustained lowering of blood pressure, repeated oral medication, unanesthetized trained renal hypertensive dog. The conditions noted are these: administered once per day.
Description: Antihypertensive activity was also judged on the basis of sustained reduction of blood pressure observed in the unanesthetized trained renal hypertensive dog following repeated oral medication according to the procedure described by Lape et al., Arch.
^b MED10 = minimum repeated oral daily dose required to effect a

As to `CC(CCc1ccc(O)cc1)NCC(O)c1ccc(O)c([S+](C)[O-])c1` (single isomer, unassigned) [Example 23C, 4-hydroxy-α-<{[4-(4-hydroxyphenyl)-1-methylpropyl]amino}methyl>-3-(methylsulfinyl)benzenemethanol cyclohexylsulfamate salt], the “Antihypertensive activity SH Rat AHD40 (single oral dose required to induce a 40 mm. average reduction in systolic blood pressure)” value in assay [1] came to 40.0 mg/kg. Also, the “Actual percentage inhibition of heart rate increase above control level observed at the indicated dose” value in assay [2] (0.025 mg./kg.) came out at 80%. In assay [2], the “Dog β-blockade AED50 (approximate intravenous dose for 50% inhibition of isoproterenol-elicited heart rate increase)” value is less than 0.025 mg/kg.

Turning to `COc1ccc(CCC(C)NCCc2ccc(O)c([S+](C)[O-])c2)cc1` (single isomer, unassigned) [Example 29C, 4-<2-{[3-(4-methoxyphenyl)-1-methylpropyl]amino}ethyl>-2-(methylsulfinyl)phenol hydrochloride], the “Renal Hypertensive Dog MED10 (minimum repeated oral daily dose for sustained lowering of blood pressure of 10% or greater)” value in assay [3] was more than 40 mg/kg. The “Actual reduction in blood pressure observed at the indicated dose” value (shortened to “Actual reduction”) in assay [1] (20 mg./kg.) was -54 mm. Hg. Further, the “Antihypertensive activity SH Rat AHD40 (single oral dose required to induce a 40 mm. average reduction in systolic blood pressure)” value in assay [1] is less than 20 mg/kg. Moreover, the “Actual percentage inhibition of heart rate increase above control level observed at the indicated dose” value in assay [2] (1.0 mg./kg.) turned out to be 43%. Besides, the “Dog β-blockade AED50 (approximate intravenous dose for 50% inhibition of isoproterenol-elicited heart rate increase)” value in assay [2] is more than 1.0 mg/kg.

As for `COc1ccc(CCC(C)NCC(O)c2ccc(OC(=O)c3ccccc3)c([S+](C)[O-])c2)cc1` (stereo not drawn) [Example 8, 4-hydroxy-α-<{[3-(4-methoxyphenyl)-1-methylpropyl]amino}methyl>-3-(methylsulfinyl)benzenemethanol 4-benzoate hemi-sulfate], the “Antihypertensive activity SH Rat AHD40 (single oral dose required to induce a 40 mm. average reduction in systolic blood pressure)” value in assay [1] came to 9 mg/kg.

On to `COc1ccc(CC(C)NC(C)C(O)c2ccc(O)c([S+](C)[O-])c2)cc1` (stereo not drawn) [Example 15F, 4-hydroxy-α-<{1-[2-(4-methoxyphenyl)-1-methylethyl]amino}ethyl>-3-(methylsulfinyl)benzenemethanol acetate salt], for which the “Actual reduction” value in assay [1] (20 mg./kg.) is -25 mm. Hg. Besides, in assay [1], the “Antihypertensive activity SH Rat AHD40 (single oral dose required to induce a 40 mm. average reduction in systolic blood pressure)” value was more than 20.0 mg/kg.

In the case of `COc1ccc(CCCC(C)(C)NCC(O)c2ccc(O)c([S+](C)[O-])c2)cc1` (stereo not drawn) [Example 22D, 4-hydroxy-α-<{[4-(4-methoxyphenyl)-1,1-dimethylbutyl]amino}methyl>-3-(methylsulfinyl)benzenemethanol], the “Actual reduction” value in assay [1] (50 mg./kg.) is on record as -12 mm. Hg. Moreover, the “Antihypertensive activity SH Rat AHD40 (single oral dose required to induce a 40 mm. average reduction in systolic blood pressure)” value in assay [1] was more than 50.0 mg/kg.

Consider `COc1ccc(CCC(C)NCC(O)c2ccc(O)c([S+](C)[O-])c2)cc1` (centres unmarked) [Example 24C, hydrochloride], for which the “Actual reduction” value in assay [1] (50 mg./kg.) was -12 mm. Hg. Besides, the “Antihypertensive activity SH Rat AHD40 (single oral dose required to induce a 40 mm. average reduction in systolic blood pressure)” value in assay [1] (hydrochloride) is more than 50 mg/kg. Also, the “Dog β-blockade AED50 (approximate intravenous dose for 50% inhibition of isoproterenol-elicited heart rate increase)” value in assay [2] (hydrochloride) is given as “ca. 0.50 mg./kg”.

For `COc1ccc(CCC(C)NCC(=O)c2ccc(OC(=O)c3ccccc3)c([S+](C)[O-])c2)cc1` (centres unmarked) [Example 25, 4'-hydroxy-2-{[3-(4-methoxyphenyl)-1-methylpropyl]amino}-3'-(methylsulfinyl)acetophenone 4'-benzoate hydrochloride], the “Actual reduction” value in assay [1] (50 mg./kg.) is reported as -12 mm. Hg. For the same compound, the “Antihypertensive activity SH Rat AHD40 (single oral dose required to induce a 40 mm. average reduction in systolic blood pressure)” value in assay [1] is more than 50 mg/kg.

Consider `COc1ccc(CCNCC(O)c2ccc(O)c([S+](C)[O-])c2)cc1OC` (stereo not drawn) [Example 27C, α-<{[2-(3,4-dimethoxyphenyl)ethyl]amino}-methyl>-4-hydroxy-3-(methylsulfinyl)benzenemethanol hydrochloride], for which the “Actual reduction” value in assay [1] (50 mg./kg.) is listed as -26 mm. Hg. Moreover, in assay [1], the “Antihypertensive activity SH Rat AHD40 (single oral dose required to induce a 40 mm. average reduction in systolic blood pressure)” value was more than 50 mg/kg. Further, the “Dog β-blockade AED50 (approximate intravenous dose for 50% inhibition of isoproterenol-elicited heart rate increase)” value in assay [2] is “ca. 0.10 mg./kg”.

For `COc1cc(CCNCC(O)c2ccc(O)c([S+](C)[O-])c2)cc(OC)c1OC` (stereo not drawn) [Example 28C, 4-hydroxy-3-(methylsulfinyl)-α-<{[2-(3,4,5-trimethoxyphenyl)ethyl]-amino}methyl>benzenemethanol hydrochloride], in assay [1] (50 mg./kg.), the “Actual reduction” value is listed as -15 mm. Hg. For the same compound, in assay [1], the “Antihypertensive activity SH Rat AHD40 (single oral dose required to induce a 40 mm. average reduction in systolic blood pressure)” value is more than 50 mg/kg.

For `CC(CCc1ccc2c(c1)OCO2)NCC(O)c1ccc(O)c([S+](C)[O-])c1` (stereo not drawn) [Example 31C, 4-hydroxy-α-<{[3-(3,4-methylenedioxyphenyl)-1-methylpropyl]amino}methyl>-3-(methylsulfinyl)benzenemethanol hydrochloride], the “Actual reduction” value in assay [1] (50 mg./kg.) is recorded as -54 mm. Hg. Moreover, in assay [1], the “Antihypertensive activity SH Rat AHD40 (single oral dose required to induce a 40 mm. average reduction in systolic blood pressure)” value was less than 50 mg/kg. Besides, the “Actual percentage inhibition of heart rate increase above control level observed at the indicated dose” value in assay [2] (0.025 mg./kg.) was 60%. The “Dog β-blockade AED50 (approximate intravenous dose for 50% inhibition of isoproterenol-elicited heart rate increase)” value in assay [2] was less than 0.025 mg/kg.

In the case of `CCOCCOc1ccc(C(O)CNC(C)CCc2ccc(OC)cc2)cc1[S+](C)[O-]` (stereo not drawn) [Example 32E, 4-[2-(ethoxy)ethoxy]-α-<{[3-(4-methoxyphenyl)-1-methylpropyl]amino}methyl>-3-(methylsulfinyl)benzenemethanol hydrochloride], the “Antihypertensive activity SH Rat AHD40 (single oral dose required to induce a 40 mm. average reduction in systolic blood pressure)” value in assay [1] was more than 150 mg/kg.

For the compound `CC(CCc1ccccc1)NCCc1ccc(O)c([S+](C)[O-])c1` (centres unmarked) [Example 33C, 4-<2-{[1-methyl-3-phenylpropyl]amino}ethyl>-2-(methylsulfinyl)phenolhydrochloride], the “Actual reduction” value in assay [1] (50 mg./kg.) is listed as -28 mm. Hg. Besides, the “Antihypertensive activity SH Rat AHD40 (single oral dose required to induce a 40 mm. average reduction in systolic blood pressure)” value in assay [1] is more than 50 mg/kg. Moreover, the “Dog β-blockade AED50 (approximate intravenous dose for 50% inhibition of isoproterenol-elicited heart rate increase)” value in assay [2] is 1.0 mg/kg.

Take `C[S+]([O-])c1cc(CCNC(C)(C)CCc2ccccc2)ccc1O.Cl` (centres unmarked) [Example 35C, 4-{2-[(1,1-dimethyl-3-phenylpropyl)amino]ethyl}-2-(methylsulfinyl)phenol hydrochloride]: the “Actual reduction” value in assay [1] (50 mg./kg.) is -20 mm. Hg. In assay [1], the “Antihypertensive activity SH Rat AHD40 (single oral dose required to induce a 40 mm. average reduction in systolic blood pressure)” value was more than 50 mg/kg. Moreover, the “Dog β-blockade AED50 (approximate intravenous dose for 50% inhibition of isoproterenol-elicited heart rate increase)” value in assay [2] turned out to be 0.6 mg/kg.

As for `COc1ccc(CCC(C)NCCc2ccc(O)c([S+](C)[O-])c2)cc1` (centres unmarked) [Example 36C, 4-<2-{[3-(4-methoxyphenyl)-1-methylpropyl]amino}ethyl>-2-(methylsulfinyl)phenol hydrochloride], the “Actual reduction” value in assay [1] (150 mg./kg., hydrochloride) is reported as -28 mm. Hg. The “Antihypertensive activity SH Rat AHD40 (single oral dose required to induce a 40 mm. average reduction in systolic blood pressure)” value in assay [1] is more than 150 mg/kg.

Take `COc1ccc(CCC(C)NCCc2ccc(O)c([S+](C)[O-])c2)cc1` (centres unmarked) [Example 37C, 4-<2-{[3-(4-methoxyphenyl)-1-methylpropyl]amino}ethyl>-2-(methylsulfinyl)phenol hydrochloride]: the “Actual reduction” value in assay [1] (150 mg./kg., hydrochloride) is reported as -21 mm. Hg. For the same compound, the “Antihypertensive activity SH Rat AHD40 (single oral dose required to induce a 40 mm. average reduction in systolic blood pressure)” value in assay [1] was more than 150 mg/kg.
